Experimental data from patent US6559125B1, “Polyamide-alkylator conjugates and related products and method” (priority 2000, dated 2003).

Columns and labels:
[1] = water, pH 7.5, 37° C.; cited from earlier work
DNA = settings: from previous reports; cited from earlier work
[2] = system: match binding sites (5′-WGCWGCW-3′) on a 241 bp restriction fragment derived from the HIV-1 promoter region; assay: Quantitative DNase I footprint titration; settings: for equilibrium association constant Ka: 22° C., pH 7.0
Procedure: Jones, K. A. & Peterlin, B. M. (1994), Annual Review of Biochemistry 63, 717-743. Left, storage phosphor autodiograms of 8% denaturing polyacrylamide gels used to separate the fragments generated by DNase I digestion. All reactions contained 20,000 cpm restriction fragment, 10 mM Tris.HCl (pH 7.0), 10 mM KCl, 10 MM MgCl2 and 5 mM CaCl and were performed at 22° C. Lane 1, intact DNA; lane 2, A-specific reaction; lane 3, G-specific reaction; lane 4, DNase I standard; lanes 5-17, 1 pM, 2 pM, 5 pM, 10 pM, 20 pM, 50 pM, 100 pM, 200 pM, 500 pM, 1 nM, 2 nM, 5 nM, 10 nM, respectively. The 5′-AGCTGCT-3′ (A), 5′-TGCAGCA-3′ (B), and 5′-TGCTGCT-3′ (E) match sites are shown in boxes on the right side of the autoradiogram (SEQ ID NO:4).
FIG. 5(b) depicts data from quantitative DNase I footprint titration experiments for ImPy-β-ImPy-(R)^CHL(OH)γ-ImPy-βImPy-β-Dp (3) binding to the 5′-AGCTGCT-3′ (A) and 5′-TGCAGCA-3′ sites (B). θnorm points were obtained using storage phosphor autoradiography and processed as described in the experimental section The data for the binding of 3 to 5′-AGCTGCT-3′ is indicated by red circles and binding to 5′-TGCAGCA-3′ by blue circles. The solid curves are best-fit Langmuir binding titration isotherms obtained from a nonlinear least-squares algorithm eq 2 (n=1).
All reactions were executed in a total volume of 400 μl. […]
Data from the footprint titration gels were obtained using a Molecular Dynamics 400S PhosphorImager followed by quantitation using ImageQuant software (Molecular Dynamics). […] The apparent fractional occupancy (θapp) of the sites were calculated using the equation: [formula] […]
where [L]tot is the total polyamide concentration, Ka is the equilibrium association constant, and θmin and θmax are the experimentally determined site saturation values when the site is unoccupied or saturated, respectively. […]

HIV = settings: cell culture; cited from earlier work
[3] = system: match binding sites (5′-WGCWGCW-3′) on a 241 bp restriction fragment derived from the HIV-1 promoter region; settings: sequence 5′-WGCWGCW-3′ in the HIV promoter; literature value; cited from earlier work

For O=C(O)CCCc1ccc(N(CCCl)CCCl)cc1 [chlorambucil, 4-[bis(2-chloroethyl)amino]benzene butanoic acid], the “half life for hydrolysis of the bis(dichloroethylamino)benzene moiety” value [1] is listed as “approximately 1.3 hours”.

In the case of “ImImPyPy-(R)^H^2^Nγ-ImPyPyPy-β-Dp [polyamide 1′]”, the binding affinity (DNA) is given as “subnanomolar”.

With “ImPy-β-ImPy-(R)^CHL(OH)γ-ImPy-β-ImPy-β-Dp [compound 3]” the “equilibrium association constant Ka” value ([2]; match site 5′-AGCTGCT-3′) was 1.6±0.7×10^10 M^−1, the “equilibrium association constant Ka” value ([2]; match site 5′-TGCAGCA-3′) was 1.3±0.7×10^10 M^−1 and the “affinities for double base pair mismatch sites, fold lower than for the match sites” value ([2]; mismatch sites 5′-TGTCGCC-3′ and 5′-AGCAGCTC-3′) was greater than 100 fold.

In the case of “ImPy-β-ImPy-γ-ImPy-β-ImPy-β-Dp [polyamide 1]”, the “inhibition of HIV replication” value (HIV) is listed as “inhbit HIV replication” and the “binding affinity Ka of unsubstituted polyamide” value [3] is listed as 2e+10 M⁻¹.
